Literature values in patent US20060045857A1, “Sunless tanning composition and methods for using” (priority 2004, published 2006).

Details: in vivo

| Substance | dermal toxicity |
| --- | --- |
| Poly(vinylpyrrolidone/1-hexadecene) [PVPH] | no demonstrable dermal toxicity |
| poly(vinylpyrrolidone/1-eicosene) [PVPE] | no demonstrable dermal toxicity |
